± gives the expanded uncertainty stated by the source. Each block holds one compound with its values, some of them ahead of it.
How the values were obtained:
[1] = an = ratio of the nth substance listed; conditions: 298.15 K, 101 kPa, Liquid
[2] = cn = amount concentration of the nth substance listed, in mol/dm3; conditions: 298.15 K, 101 kPa, Liquid

mass density ([1]; a1 = 0.0003): 997.17 ± 0.29 kg/m3 | mass density ([1]; a1 = 0.0007): 997.34 ± 0.29 kg/m3 | mass density ([1]; a1 = 0.0009): 997.37 ± 0.29 kg/m3 | mass density ([1]; a1 = 0.0026): 997.92 ± 0.29 kg/m3 | mass density ([1]; a1 = 0.0053): 998.93 ± 0.28 kg/m3 | mass density ([1]; a1 = 0.0101): 1000.34 ± 0.28 kg/m3 | mass density ([1]; a1 = 0.0134): 1001.42 ± 0.29 kg/m3 | mass density ([1]; a1 = 0.0157): 1002.16 ± 0.29 kg/m3 | mass density ([1]; a1 = 0.0168): 1002.5 ± 0.29 kg/m3
Compound: O=C1CNC(=O)CN1 [2,5-diketopiperazine] + O

mass density ([1]; a1 = 0.1091): 1039.02 ± 0.39 kg/m3 | mass density ([1]; a1 = 0.1535): 1053.89 ± 0.42 kg/m3 | mass density ([1]; a1 = 0.1933): 1065.41 ± 0.46 kg/m3 | mass density ([1]; a1 = 0.2231): 1075.18 ± 0.48 kg/m3 | mass density ([1]; a1 = 0.239): 1079.4 ± 0.49 kg/m3 | mass density ([1]; a1 = 0.244): 1080.36 ± 0.5 kg/m3 | mass density ([1]; a1 = 0.2509): 1082.99 ± 0.5 kg/m3
Compound: NCC(=O)O [2-aminoacetic acid] + O

mass density ([2]; c1 = 1): 1080.52 ± 0.42 kg/m3 | mass density ([2]; c1 = 2): 1162.26 ± 0.63 kg/m3 | mass density ([2]; c1 = 4): 1323.4 ± 1.1 kg/m3
Compound: [Br-].[K+] [potassium bromide] + O

mass density ([2]; c1 = 1): 1043.58 ± 0.32 kg/m3 | mass density ([2]; c1 = 2): 1087.93 ± 0.43 kg/m3 | mass density ([2]; c1 = 4): 1170.95 ± 0.64 kg/m3
Compound: CC(=O)[O-].[K+] [potassium ethanoate] + O

Further lines, the compound ahead of its results:

Compound: O=C(O)CNCC(=O)O [N-(carboxymethyl)glycine] + O
mass density ([1]; a1 = 0.1001): 1035.94 ± 0.32 kg/m3 | mass density ([1]; a1 = 0.1553): 1053.34 ± 0.36 kg/m3 | mass density ([1]; a1 = 0.193): 1066.16 ± 0.4 kg/m3 | mass density ([1]; a1 = 0.2113): 1072.41 ± 0.41 kg/m3 | mass density ([1]; a1 = 0.2201): 1074.86 ± 0.42 kg/m3 | mass density ([1]; a1 = 0.2258): 1076.92 ± 0.42 kg/m3

Compound: NCC(=O)NCC(=O)NCC(=O)O [glycylglycylglycine] + O
mass density ([1]; a1 = 0.0099): 1001 ± 0.28 kg/m3 | mass density ([1]; a1 = 0.0192): 1004.77 ± 0.29 kg/m3 | mass density ([1]; a1 = 0.0355): 1011.02 ± 0.31 kg/m3 | mass density ([1]; a1 = 0.0452): 1014.88 ± 0.32 kg/m3 | mass density ([1]; a1 = 0.0544): 1018.36 ± 0.33 kg/m3 | mass density ([1]; a1 = 0.0624): 1021.44 ± 0.34 kg/m3 | mass density ([1]; a1 = 0.0641): 1022.05 ± 0.34 kg/m3

Compound: NCC(=O)NCC(=O)NCC(=O)NCC(=O)O [glycylglycylglycylglycine] + O
mass density ([1]; a1 = 0.0013): 997.73 ± 0.29 kg/m3 | mass density ([1]; a1 = 0.0023): 998.04 ± 0.29 kg/m3 | mass density ([1]; a1 = 0.0031): 998.3 ± 0.29 kg/m3 | mass density ([1]; a1 = 0.0033): 998.38 ± 0.29 kg/m3 | mass density ([1]; a1 = 0.0036): 998.49 ± 0.29 kg/m3 | mass density ([1]; a1 = 0.0038): 998.55 ± 0.28 kg/m3 | mass density ([1]; a1 = 0.0039): 998.59 ± 0.28 kg/m3

Compound: [Cl-].[K+] [potassium chloride] + O
mass density ([2]; c1 = 1): 1042.84 ± 0.32 kg/m3 | mass density ([2]; c1 = 2): 1082.33 ± 0.42 kg/m3 | mass density ([2]; c1 = 4): 1168.97 ± 0.63 kg/m3
